Results published in patent publication US20130217132A1, “METHODS, COMPOSITIONS AND USE FOR ENHANCING CHEMICAL TOLERANCE BY MICROORGANISMS” (priority 2009, published 2013).
Read-outs that look alike come from different tables or passages of the source.

Legend:
BW25113 ArecA pLPCA = test: MIC assay of furfural, lpcA overexpression strain; assay type: cell-based, E. coli; details: Escherichia coli
Experimental: In one exemplary method, assays were performed to determine minimum inhibitory concentration (MIC) of ethanol, furfural and acetate for BW25113 and MG1655 E. coli strains. […] Cells from each strain were inoculated from the same optical density into a total of 100 μL of varying furfural concentrations in a minimal media, for example using MOPS. Cell growth in the first 24 hr or 48 hr in the presence of furfural was monitored. The left bar in each pair for each indicated strain represents a first concentration of furfural that inhibited bacterial growth after 24 hr. The right bar for each strain represents the first concentration that inhibited growth after 48 hr. The MIC reads were the average of triplicates (n=3), and error bars represent standard deviation. […] ArecA signifies strains where the gene has been knocked out as previously described.
The minimum inhibitory concentration (MIC) of furfural of MG1655 and BW25113 with or without lpcA overexpression was determined. MIC assays were performed as described in Example 13. […] MIC reads were average of triplicates (n=3), and error bars represent standard deviation. The SDS-PAGE gel image in FIG. 17C represents LPS level of the cells indicated above the gel image (duplicate of each cell sample was presented). LPS was extracted from the indicated cells grown to exponential phase. Loading of LPS the SDS-PAGE gel was normalized to the cell number. The gel was stained for visualization after desired separation of LPS was obtained.
In another exemplary method, MIC was determined when MG1655 and BW25113 strains were fed with various carbon sources. MIC assays were performed in the presence of furfural. Glucose, Xylose or Ribose was supplemented with a minimal media for cell growth. […] MICs were read at the indicated time (24 hr or 48 hr), the average of triplicates was presented and error bars represent standard deviation. ‘Blank vector’ refers to the pBTL-1 vector, which served as the control. […]

ADH = details: 0.12 g/L furfural; cited from earlier work
[1] = test system: pyruvate dehydrogenase (PDH) complex; details: 0.12 g/L furfural; cited from earlier work
[2] = furfural vs. furfuryl alcohol; cited from earlier work
[3] = test system: BW25113 araC::FRT-kan clone with overexpression of lpcA gene; test: Cell growth (OD600) in MOPS minimal media with furfural, araC deletion plus lpcA overexpression; assay type: cell-based, E. coli; details: furfural 1 g/L, araC deletion and lpcA overexpression
Experimental: In other exemplary methods, tolerance and expression of LPS was restored in a microorganism. FIG. 19 represents an example of restoration of tolerance and LPS expression in BW25113 ArecA clone. The indicated cells were grown in MOPS minimal media supplemented with glucose as a carbon source. Furfural was added to the media at the concentration of 1 g/L. Arabinose was added at 10 mM where indicated to gauge effect of AraC binding. The BW25113 araC::FRT-kan clone corresponds to JW0063, a BW25113 araC knockout mutant ordered from the Keio Collection directly. pBTL-1 represented the blank vector, and pLPCA referred to lpcA gene overexpression. Consistent with the Examples above, overexpression of lpcA gene increased cell growth (OD600 of 0.1 vs. 0.05) in the presence of furfural. Addition of Arabinose to the lpcA gene overexpression cells could further enhance the effect (OD600 of 0.3). […] To analyze the LPS level in the cells indicated in FIG. 19, LPS are extracted from the cells grown to exponential phase. Loading of LPS for the protein gel is normalized to the cell number. The gel is stained to visualize LPS protein bands after desired separation is obtained.
BW25113, MG1655, and derivatives were used where indicated. JW0063, an araC mutant of BW25113 was obtained from the Coli Genetic Stock Center (Yale). Overnight bacterial cultures were grown in Luria-Bertani medium with shaking. […]

[4] = test system: aldehyde dehydrogenase (A1DH; EC 1.2.1.5); details: 0.12 g/L furfural; cited from earlier work
[5] = test system: BW25113 ArecA cells overexpressing lpcA gene (pLPCA); assay type: cell-based, E. coli; details: for OD600 (cell growth in the presence of furfural): furfural 1 g/L, lpcA overexpression, FIG. 19
Experimental: (§1) FIGS. 17A-17B represent methods of identification of a gene related to restoring tolerance. Multiple genome-wide SCALE selection was performed in the presence of ethanol, furfural and acetate respectively. The data set obtained for each compound was compared to the others. Alleles enriched in all cases were identified. […] To restore tolerance, overexpression of identified genes in bacterial cells was performed. For example, lpcA ORF was cloned into the pBTL-1 vector. BW25113 ArecA cells transformed with the blank pBTL-1 vector were used as a control. BW25113 ArecA cells overexpressing lpcA gene were referred to as pLPCA. Cells were inoculated at a standard cell density into MOPS minimal media, supplemented with furfural, acetate or ethanol. After 24 hours, growth of the cells was analyzed.
(§2) The indicated cells were grown in MOPS minimal media supplemented with glucose as a carbon source. Furfural was added to the media at the concentration of 1 g/L. Arabinose was added at 10 mM where indicated to gauge effect of AraC binding. The BW25113 araC::FRT-kan clone corresponds to JW0063, a BW25113 araC knockout mutant ordered from the Keio Collection directly. pBTL-1 represented the blank vector, and pLPCA referred to lpcA gene overexpression. […] To analyze the LPS level in the cells indicated in FIG. 19, LPS are extracted from the cells grown to exponential phase. Loading of LPS for the protein gel is normalized to the cell number. The gel is stained to visualize LPS protein bands after desired separation is obtained.
(§3) BW25113, MG1655, and derivatives were used where indicated. JW0063, an araC mutant of BW25113 was obtained from the Coli Genetic Stock Center (Yale). Overnight bacterial cultures were grown in Luria-Bertani medium with shaking. MOPS minimal medium (previously presented) with 0.2% glucose as a carbon source, was used for all seed cultures and growth studies. Seed cultures were inoculated at 2 v/v % from an overnight culture and were grown to mid-exponential phase. Growth cultures were inoculated with 10 v/v % seed cultures of an OD600 of 0.195-0.200 for an initial optical density of ˜0.02. Carbenicillin and kanamycin were used where appropriate at 100 μg/ml and 30 μg/ml, respectively. The pBTL-1 vector (previously described) was used as the control blank vector for all growth studies. Genome-wide furfural selection

[6] = test system: BW25113 ArecA cells transformed with the blank pBTL-1 vector; assay type: cell-based, E. coli
Experimental: as §1, §2, §3

Structure (SMILES): O=Cc1ccco1 [furfural, furan-2-carbaldehyde]
- MIC (BW25113 ArecA pLPCA; BW25113, read-out: MIC of furfural, BW25113 ArecA pLPCA, FIG. 17C): 1250 µg/mL
- MIC (BW25113 ArecA pLPCA; BW25113, read-out: MIC of furfural, pLPCA, glucose as carbon source, FIG. 18B): 1250 µg/mL
- MIC (BW25113 ArecA pLPCA; BW25113, read-out: MIC of furfural, pLPCA, xylose as carbon source, FIG. 18B): 1000 µg/mL
- activity inhibited (ADH): 60%
- activity reduction [1]: more than 80%
- toxicity on a concentration basis [2]: ~2 g/L
- OD600 (cell growth in the presence of furfural) ([3]; absence of Arabinose): 0.5
- OD600 (cell growth in the presence of furfural) ([3]; presence of Arabinose): 1.0
- activity reduction [4]: more than 80%
- OD600 (cell growth in the presence of furfural) ([5]; Arabinose 10 mM): 0.3
- OD600 (cell growth in the presence of furfural) ([5]; no Arabinose): 0.1
- improvement of final optical density by pLPCA in BW25113 ([5]; furfural 1 g/l): 252±8%
- OD600 at 24 hr ([5]; pLPCA cells, 1 g/L of furfural): about 1.2
- OD600 at 24 hr ([6]; control cells, 1 g/L of furfural): about 0.2
- OD600 (cell growth in the presence of furfural) ([6]; furfural 1 g/L, blank vector pBTL-1, no Arabinose, FIG. 19): 0.05
